Assay results taken from patent US12252524B2, “GIP/GLP1 co-agonist compounds” (Eli Lilly and Company, priority 2018, dated 2025).
Numbered stars: 1 amine (or outer) side, 2 acyl side, 3 side chain; on linkers, the order of the positions; unused ones are H or OH. Square brackets hold non-standard residues; d marks the D form. Side chains are listed from the residue outwards. Peptide text beside a SMILES is read from it. * marks the point of attachment. C20 diacid = O=C(O)CCCCCCCCCCCCCCCCCCC(=O)*; C18 diacid = O=C(O)CCCCCCCCCCCCCCCCC(=O)*; αMePhe(2-F) = C[C@](N)(Cc1ccccc1F)C(=O)O; γGlu = O=C(O)[C@H](CCC(=O)[*:2])N[*:1]; αMeY = C[C@](N)(Cc1ccc(O)cc1)C(=O)O; αMeF = C[C@](N)(Cc1ccccc1)C(=O)O; αMeL = CC(C)C[C@](C)(N)C(=O)O; Orn = NCCC[C@H](N)C(=O)O; AEEA = NCCOCCOCC(=O)O; Aib = CC(C)(N)C(=O)O

How the values were obtained:
human GLP-1R = human GLP-1R (Homo sapiens, UniProt P43220); test: [125I]-GLP-1 binding (SPA), human GLP-1 receptor; set-up: expressed in transfected cells; crude membranes; details: read-out: hGLP1R Ki, (nM) (SEM, n)
Method in brief: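 Membranes: hypotonic lysis (50 mM Tris HCl, pH 7.5, protease inhibitors), Potter-Elvehjem homogenization, high-speed pellet (35000×g 1 h or 25000×g 30 min, 4° C.). Buffer: 25 mM HEPES pH 7.4, 2.5 mM CaCl2, 1 mM MgCl2. Four-parameter IC50 fit; Ki as geometric mean ± SEM.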

[1] = molecular target: human GLP-1 receptor (GLP-1R) (Homo sapiens, UniProt P43220); test: cAMP pharmacological functional assay in presence of casein, hGLP-1R; format: cell-based; details: HEK293 cells expressing hGLP-1R, 0.1% Casein, geometric mean; read-out: hGLP1R cAMP Rel EC50 nM (SEM, n)
human Gcg receptor = molecular target: T1, human Gcg receptor (Homo sapiens, UniProt P47871); test: [125I]-Glucagon binding (SPA), human Gcg receptor; details: read-out: hGLcgR Ki, nM (SEM, n)
T1 construct: expressed in transfected cells; crude membranes
Method in brief: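 Crude membranes from cells expressing the receptor, prepared by hypotonic lysis in 50 mM Tris HCl pH 7.5 with protease inhibitors, homogenization and differential centrifugation, were used in a WGA-bead SPA. Binding buffer: 25 mM HEPES pH 7.4, 2.5 mM CaCl2, 1 mM MgCl2, bacitracin, Tween-20.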

human GIP receptor = molecular target: T2, human GIP receptor (Homo sapiens, UniProt P48546); test: [125I]-GIP binding (SPA), human GIP receptor; details: read-out: hGIPR Ki, nM (SEM, n)
T2 construct: expressed in transfected cells; crude membranes
T2 sequence (P48546 22-466): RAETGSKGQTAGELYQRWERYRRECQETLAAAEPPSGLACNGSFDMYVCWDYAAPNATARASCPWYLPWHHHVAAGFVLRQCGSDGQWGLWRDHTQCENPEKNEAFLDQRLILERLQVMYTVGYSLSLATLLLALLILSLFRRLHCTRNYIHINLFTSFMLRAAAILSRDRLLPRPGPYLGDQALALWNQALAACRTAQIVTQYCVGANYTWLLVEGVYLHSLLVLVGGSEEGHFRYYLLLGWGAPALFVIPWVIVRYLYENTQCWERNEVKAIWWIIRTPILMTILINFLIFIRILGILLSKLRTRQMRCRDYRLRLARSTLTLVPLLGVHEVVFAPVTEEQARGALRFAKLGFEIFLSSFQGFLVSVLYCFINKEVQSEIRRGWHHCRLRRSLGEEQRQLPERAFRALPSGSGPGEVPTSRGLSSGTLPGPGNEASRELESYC

[2] = molecular target: T3, gastric inhibitory peptide receptor (GIPR) (Homo sapiens, UniProt P48546); test: cAMP pharmacological functional assay in presence of casein, hGIPR; format: cell-based; details: HEK293 cells expressing hGIPR, 0.1% Casein, geometric mean; read-out: hGIPR cAMP Rel EC50 nM (SEM, n)
T3 sequence (P48546 22-466): T2 sequence (P48546 22-466)

human GLP-1R, sequence (P43220 24-463): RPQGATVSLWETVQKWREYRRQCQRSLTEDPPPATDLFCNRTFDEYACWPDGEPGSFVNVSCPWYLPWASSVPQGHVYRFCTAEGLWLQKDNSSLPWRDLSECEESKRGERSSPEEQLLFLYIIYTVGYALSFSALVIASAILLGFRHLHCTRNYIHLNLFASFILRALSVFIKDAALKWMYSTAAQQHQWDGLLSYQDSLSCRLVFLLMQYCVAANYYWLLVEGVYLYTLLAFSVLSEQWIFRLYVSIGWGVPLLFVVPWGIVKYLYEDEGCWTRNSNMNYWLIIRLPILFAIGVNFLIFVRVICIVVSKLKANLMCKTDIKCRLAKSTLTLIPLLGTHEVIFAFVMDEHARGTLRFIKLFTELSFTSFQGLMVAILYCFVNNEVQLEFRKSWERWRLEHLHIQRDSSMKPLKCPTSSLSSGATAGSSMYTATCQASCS
human GLP-1 receptor (GLP-1R), sequence (P43220 24-463): as above
T1 sequence (P47871 26-477): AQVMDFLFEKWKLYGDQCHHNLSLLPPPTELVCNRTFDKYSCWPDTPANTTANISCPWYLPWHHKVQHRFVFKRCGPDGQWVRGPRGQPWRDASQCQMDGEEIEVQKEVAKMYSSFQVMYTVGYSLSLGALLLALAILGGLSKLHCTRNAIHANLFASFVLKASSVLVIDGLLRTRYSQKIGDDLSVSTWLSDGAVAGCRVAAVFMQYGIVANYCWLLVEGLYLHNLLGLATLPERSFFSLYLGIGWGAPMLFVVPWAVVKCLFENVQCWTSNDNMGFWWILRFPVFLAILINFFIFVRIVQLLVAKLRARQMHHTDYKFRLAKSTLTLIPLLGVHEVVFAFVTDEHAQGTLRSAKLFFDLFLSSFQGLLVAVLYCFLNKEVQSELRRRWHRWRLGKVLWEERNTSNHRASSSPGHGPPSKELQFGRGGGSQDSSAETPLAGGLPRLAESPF

| Structure (SMILES) | Ki (human GLP-1R) | EC50 [1] | Ki (human Gcg receptor) | Ki (human GIP receptor) | EC50 [2] |
| --- | --- | --- | --- | --- | --- |
| CC[C@H](C)[C@H](NC(=O)[C@H](CC(C)C)NC(=O)[C@H](Cc1ccc(O)cc1)NC(=O)[C@H](CCC(=O)O)NC(=O)[C@@H](NC(=O)[C@H](Cc1ccccc1)NC(=O)C(C)(C)NC(=O)[C@H](Cc1c[nH]cn1)NC(=O)[C@H](CCC(N)=O)NC(=O)[C@H](C)NC(=O)[C@H](CCCCNC(=O)COCCOCCNC(=O)COCCOCCNC(=O)CC[C@H](NC(=O)CCCCCCCCCCCCCCCCCCC(=O)O)C(=O)O)NC(=O)[C@H](CCCCN)NC(=O)[C@H](CC(=O)O)NC(=O)[C@H](CC(C)C)NC(=O)[C@](C)(CC(C)C)NC(=O)[C@@H](NC(=O)[C@H](CO)NC(=O)[C@H](Cc1ccc(O)cc1)NC(=O)[C@H](CC(=O)O)NC(=O)[C@H](CO)NC(=O)[C@@H](NC(=O)[C@](C)(Cc1ccccc1)NC(=O)[C@@H](NC(=O)CNC(=O)[C@H](CCC(=O)O)NC(=O)C(C)(C)NC(=O)[C@@H](N)Cc1ccc(O)cc1)[C@@H](C)O)[C@@H](C)O)[C@@H](C)CC)[C@@H](C)CC)C(=O)N[C@@H](CCC(=O)O)C(=O)NCC(=O)NCC(=O)N1CCC[C@H]1C(=O)N[C@@H](CO)C(=O)N[C@@H](CO)C(=O)NCC(=O)N[C@@H](C)C(=O)N1CCC[C@H]1C(=O)N1CCC[C@H]1C(=O)N1CCC[C@H]1C(=O)N[C@@H](CO)C(N)=O [Example 144] (H-Y[Aib]EGT[αMeF]TSDYSI[αMeL]LDKK([AEEA-AEEA-γGlu-C20 diacid])AQH[Aib]FIEYLIEGGPSSGAPPPS-NH2) | 1.78 nM | 0.0608 nM | 77 nM | 0.0341 nM | 0.0375 nM |
| CC[C@H](C)[C@H](NC(=O)[C@H](CC(C)C)NC(=O)[C@H](Cc1ccc(O)cc1)NC(=O)[C@H](CCC(=O)O)NC(=O)[C@@H](NC(=O)[C@H](Cc1ccccc1)NC(=O)[C@H](C)NC(=O)C(C)(C)NC(=O)[C@H](CCC(N)=O)NC(=O)[C@H](C)NC(=O)[C@H](CCCCNC(=O)COCCOCCNC(=O)COCCOCCNC(=O)CC[C@H](NC(=O)CCCCCCCCCCCCCCCCCCC(=O)O)C(=O)O)NC(=O)[C@H](CCCCN)NC(=O)[C@H](CC(=O)O)NC(=O)[C@H](CC(C)C)NC(=O)[C@H](CC(C)C)NC(=O)[C@@H](NC(=O)[C@H](CO)NC(=O)[C@H](Cc1ccc(O)cc1)NC(=O)[C@H](CC(=O)O)NC(=O)[C@H](CO)NC(=O)[C@@H](NC(=O)[C@](C)(Cc1ccccc1)NC(=O)[C@@H](NC(=O)CNC(=O)[C@H](CCC(=O)O)NC(=O)C(C)(C)NC(=O)[C@@H](N)Cc1ccc(O)cc1)[C@@H](C)O)[C@@H](C)O)[C@@H](C)CC)[C@@H](C)CC)C(=O)N[C@@H](CCC(=O)O)C(=O)NCC(=O)NCC(=O)N1CCC[C@H]1C(=O)N[C@@H](CO)C(=O)N[C@@H](CO)C(=O)NCC(=O)N[C@@H](C)C(=O)N1CCC[C@H]1C(=O)N1CCC[C@H]1C(=O)N1CCC[C@H]1C(=O)N[C@@H](CO)C(N)=O [Example 57] | 3 nM | 0.0668 nM | 26.1 nM | 0.0583 nM | 0.0849 nM |
| CC[C@H](C)[C@H](NC(=O)[C@H](CC(C)C)NC(=O)[C@](C)(Cc1ccc(O)cc1)NC(=O)[C@@H](CCC(=O)O)NC(=O)[C@@H](NC(=O)[C@H](Cc1ccccc1)NC(=O)[C@@H](NC(=O)C(C)(C)NC(=O)[C@H](CCC(N)=O)NC(=O)[C@H](C)NC(=O)[C@H](CCCCNC(=O)COCCOCCNC(=O)COCCOCCNC(=O)CC[C@H](NC(=O)CCCCCCCCCCCCCCCCC(=O)O)C(=O)O)NC(=O)[C@H](CCCN)NC(=O)[C@H](CC(=O)O)NC(=O)[C@H](CC(C)C)NC(=O)[C@](C)(CC(C)C)NC(=O)[C@@H](NC(=O)[C@H](CO)NC(=O)[C@@H](NC(=O)[C@H](CC(=O)O)NC(=O)[C@H](CO)NC(=O)[C@@H](NC(=O)[C@](C)(Cc1ccccc1F)NC(=O)[C@@H](NC(=O)CNC(=O)[C@H](CCC(=O)O)NC(=O)C(C)(C)NC(=O)[C@@H](N)Cc1ccc(O)cc1)[C@@H](C)O)[C@@H](C)O)C(C)C)[C@@H](C)CC)[C@@H](C)O)[C@@H](C)CC)C(=O)N[C@@H](CCC(=O)O)C(=O)NCC(=O)NCC(=O)N1CCC[C@H]1C(=O)N[C@@H](CO)C(=O)N[C@@H](CO)C(=O)NCC(=O)N[C@@H](C)C(=O)N1CCC[C@H]1C(=O)N1CCC[C@H]1C(=O)N1CCC[C@H]1C(=O)N[C@@H](CO)C(N)=O [Example 241] (H-Y[Aib]EGT[αMePhe(2-F)]TSDVSI[αMeL]LD[Orn]K([AEEA-AEEA-γGlu-C18 diacid])AQ[Aib]TFI[dE][αMeY]LIEGGPSSGAPPPS-NH2; N-terminus assumed) | 0.799 nM | 0.0175 nM | 167 nM | 0.042 nM | 0.0257 nM |
| CC[C@H](C)[C@H](NC(=O)[C@H](CC(C)C)NC(=O)[C@H](Cc1ccc(O)cc1)NC(=O)[C@H](CCC(=O)O)NC(=O)[C@@H](NC(=O)[C@H](Cc1ccccc1)NC(=O)[C@H](C)NC(=O)C(C)(C)NC(=O)[C@H](CCC(N)=O)NC(=O)[C@H](C)NC(=O)[C@H](CCCCNC(=O)COCCOCCNC(=O)COCCOCCNC(=O)CC[C@H](NC(=O)CCCCCCCCCCCCCCCCCCC(=O)O)C(=O)O)NC(=O)[C@H](CCCCN)NC(=O)[C@H](CC(=O)O)NC(=O)[C@H](CC(C)C)NC(=O)[C@H](CC(C)C)NC(=O)[C@@H](NC(=O)[C@H](CO)NC(=O)[C@H](Cc1ccc(O)cc1)NC(=O)[C@H](CC(=O)O)NC(=O)[C@H](CO)NC(=O)[C@@H](NC(=O)[C@H](Cc1ccccc1)NC(=O)[C@@H](NC(=O)CNC(=O)[C@H](CC(N)=O)NC(=O)C(C)(C)NC(=O)[C@@H](N)Cc1c[nH]cn1)[C@@H](C)O)[C@@H](C)O)[C@@H](C)CC)[C@@H](C)CC)C(=O)N[C@@H](CCC(=O)O)C(=O)NCC(=O)NCC(=O)N1CCC[C@H]1C(=O)N[C@@H](CO)C(=O)N[C@@H](CO)C(=O)NCC(=O)N[C@@H](C)C(=O)N1CCC[C@H]1C(=O)N1CCC[C@H]1C(=O)N1CCC[C@H]1C(=O)N[C@@H](CO)C(N)=O [Example 135] (H-H[Aib]NGTFTSDYSILLDKK([AEEA-AEEA-γGlu-C20 diacid])AQ[Aib]AFIEYLIEGGPSSGAPPPS-NH2) | 3.01 nM | 0.131 nM | 454 nM | 0.161 nM | 0.373 nM |
| CC[C@H](C)[C@H](NC(=O)[C@H](CCCCN)NC(=O)[C@H](CC(=O)O)NC(=O)[C@H](CC(C)C)NC(=O)[C@H](CC(C)C)NC(=O)[C@@H](NC(=O)[C@H](CO)NC(=O)[C@H](Cc1ccc(O)cc1)NC(=O)[C@H](CC(=O)O)NC(=O)[C@H](CO)NC(=O)[C@@H](NC(=O)[C@H](Cc1ccccc1)NC(=O)[C@@H](NC(=O)CNC(=O)[C@H](CCC(=O)O)NC(=O)C(C)(C)NC(=O)[C@@H](N)Cc1ccc(O)cc1)[C@@H](C)O)[C@@H](C)O)[C@@H](C)CC)C(=O)N[C@@H](C)C(=O)N[C@@H](CCC(N)=O)C(=O)NC(C)(C)C(=O)N[C@@H](C)C(=O)N[C@@H](Cc1ccccc1)C(=O)N[C@H](C(=O)N[C@@H](CCC(=O)O)C(=O)N[C@@H](Cc1ccc(O)cc1)C(=O)N[C@@H](CC(C)C)C(=O)N[C@H](C(=O)N[C@@H](CCC(=O)O)C(=O)NCC(=O)N[C@@H](CCCCNC(=O)COCCOCCNC(=O)COCCOCCNC(=O)CC[C@H](NC(=O)CCCCCCCCCCCCCCCCCCC(=O)O)C(=O)O)C(=O)N1CCC[C@H]1C(=O)N[C@@H](CO)C(=O)N[C@@H](CO)C(=O)NCC(=O)N[C@@H](C)C(=O)N1CCC[C@H]1C(=O)N1CCC[C@H]1C(=O)N1CCC[C@H]1C(=O)N[C@@H](CO)C(N)=O)[C@@H](C)CC)[C@@H](C)CC [Example 39] (H-Y[Aib]EGTFTSDYSILLDKIAQ[Aib]AFIEYLIEGK([AEEA-AEEA-γGlu-C20 diacid])PSSGAPPPS-NH2) | 16.8 nM | 1.92 nM | 161 nM | 0.0499 nM | 0.133 nM |
